Assays:
Type in all cases: cell-based
Arthrobacter globiformis = test: Adaptation stages: mortality of Arthrobacter globiformis on growth media with thiodicarb or bifenthrin; conditions: for initial mortality: summary of the adaptation tests with increasing concentrations of thiodicarb and bifenthrin
Protocol: (§1) Bacteria strains, nitrifiers, phosphorus solubilizers and antagonists for pathogens: • a) Arthrobacter globiformis • b) Bacillus megaterium • c) Bacillus brevis • d) Bacillus thuringiensis Preparation for Stage Development • 1. Glass material is sterilized in an autoclave. • 2. The required amount of growth media is prepared, DFA Agar, Malt Agar (Corn Agar) and (PDA) to obtain viable colonies. • 3. Lethal dose (LD) applied to a hectare is established, for thiodicarb as well as bifenthrin. 10 Petri dishes are prepared with 0.1 LD of thiodicarb of bifenthrin. Dishes are incubated at 25° C. for 72 hours with cold light. Methodology • a. Physical and chemical variables obtained in the research are maintained using traces. Petri dishes are placed inside the laminar flow chamber along with the diluted samples, to seed microorganisms in the dishes, a one ml sample of the strain is taken with an automated pipette, 10^−1 and 10^−2 solutions are performed and each solution is homogenized. • b. Having the petri dishes with the sterile and cold growth media, it is homogenized with 6 right to left movements, 6 clockwise movements, 6 counterclockwise movements and 6 front to back movements over a flat horizontal surface until the inoculum is completely integrated into the media, stand until it solidifies and each dish is covered with parafilm to avoid contamination during incubation. • c. The adapted consortium conditions are kept for the starting media (habitat), humidity, pH, temperature, chemical traceability, lighting and airing, Gram colorations and malachite green for the differentiation and observation of cellular structures. • d. Dishes with thiodicarb and Bifenthrin are placed inside the incubator at 25° C. for 72 hours with a cold light lamp. • e. Inoculated dishes are incubated for 72 hours and the bacteria growth will be recorded, the product concentration impact is determined over the plate growth (12 hours of incubation). • f. The residual impact of the product is reviewed after 7 days in the malt agar and PDA agar media. • g. If there is no growth over 10%, the process is repeated until a mortality under 90% is obtained. • h. The colony diameter is determined using a graduated ruler, data is recorded subtracting the diameter of the seeded dish, from which the effect over the mycelial growth will be determined compared to the control (not poisoned MA, denominated as percentage of inhibition of radial growth (PIRG %). • i. Progress is recorded daily and after 7 days analysis of an acceptable coverage is performed, if not, the procedure is repeated as many times as required. • j. From the 10 Petri dishes for each microorganism, the one with the lowest mortality is the one that will continue with the following study. • k. The study is performed again using this percentage until coverage increases and so on, the addition of thiodicarb and bifenthrin is alternated with the LD in intervals of 0.1 LD; all these experiments have been designed with the experimental strains and a control. • l. With the data obtained from the bacterial growth, the percentage of inhibition of gradual growth is obtained, the data is transformed for its analysis with the expression 2 arc sin. A two-way classification analysis of variance is applied and later the Turkey test is performed using a 5% probability.
(§2) Characteristics for this procedure were recorded during all stages through the following indicators: • a. Growth speed • b. Percentage of inhibition measured in Number of CFU/mm • c. Percentage of poison resistance
Habitat conditions are maintained, conditions obtained during the adaptation to organophosphorus and organochlorinated compounds and mercury of the microorganism, pH: 7.0, humidity: 35%, Temperature: Thermoresistant. These conditions are the starting point to adapt the strain to the new pollutants: thiodicarb (carbamate) and bifenthrin (pyrethroid). […]

Bacillus subtillis = test: Adaptation stages: mortality of Bacillus subtillis on growth media with thiodicarb or bifenthrin; conditions: for Resistant to: FINAL: Bacillus subtillis at the end of the adaptation process
Bacillus brevis = test: Adaptation stages: mortality of Bacillus brevis on growth media with thiodicarb or bifenthrin; conditions: for Resistant to: FINAL: Bacillus brevis at the end of the adaptation process
Protocol: as §1, §2
Beginning with habitat conditions obtained in the adaptation to organophosphate, organochlorine compounds and mercury from the microorganisms at the E-38 pH: 7.2, Humidity: 36%, thermoresistant and facultative anaerobic. These conditions are the starting point to adapt the strain to thiodicarb and bifenthrin.
To adapt this microorganism, 51 stages were performed, beginning the process with the conventional growth media. […]

Bacillus thuringiensis = test: Adaptation stages: mortality of Bacillus thuringiensis on growth media with thiodicarb or bifenthrin; conditions: for Resistant to: FINAL: B. Thuringiensis at the end of the adaptation process
Protocol: as §1, §2
Beginning with habitat conditions obtained in the adaptation to organophosphate, organochlorine compounds and mercury from the microorganisms at the E-38 pH: 7.2, Humidity: 52%, thermoresistant (74° C.), […] and facultative anaerobic. These conditions are the starting point to adapt the strain to thiodicarb and bifenthrin. During all stages a cold light lamp will be used to adapt the microorganism to sunlight. […]

[1] = stages E-5 and E-6, 0.1 LD (0.00000006 gr)
[2] = stages E-7 and E-8, 0.2 LD (0.00000012 gr)
[3] = stages E-13 and E-14, 0.3 LD (0.00000018 gr)
[4] = stages E-21 and E-22, 0.5 LD (0.00000030 gr)
[5] = stages E-29 and E-30, 0.7 LD (0.00000036 gr)
[6] = stages E-37 and E-38, 0.9 LD (0.00000042 gr)
[7] = stages E-45 and E-46, 1.1 LD (0.00000054 gr)
[8] = stages E-3 and E-4, 0.2 LD (0.000035 gr)
[9] = stages E-9 and E-10, 0.3 LD (0.000053 gr)
[10] = stages E-11 and E-12, 0.4 LD (0.000070 gr)
[11] = stages E-15 and E-16, 0.4 LD (0.00000024 gr)
[12] = stages E-17 and E-18, 0.5 LD (0.000087 gr)
[13] = stages E-19 and E-20, 0.6 LD (0.00011 gr)
[14] = stages E-23 and E-24, 0.6 LD (0.00000036 gr)
[15] = stages E-25 and E-26, 0.7 LD (0.00012 gr)
[16] = stages E-27 and E-28, 0.8 LD (0.00014 gr)
[17] = stages E-31 and E-32, 0.8 LD (0.00000042 gr)
[18] = stages E-33 and E-34, 0.9 LD (0.00016 gr)
[19] = stages E-35 and E-36, 1 LD (0.00018 gr)
[20] = stages E-39 and E-40, 1 LD (0.00000048 gr)
[21] = stage E-1, 0.1 LD (0.0000175 gr), until day 68 of incubation
[22] = stage E-2, 0.1 LD (0.0000175 gr)
[23] = stages E-41 and E-42, 1.1 LD (0.00020 gr)
[24] = stages E-43 and E-44, 1.2 LD (0.00022 gr), both stages
[25] = stages E-47 and E-48, 1.2 LD (0.00000060 gr)

Cc1c(COC(=O)[C@@H]2[C@H](/C=C(\Cl)C(F)(F)F)C2(C)C)cccc1-c1ccccc1 (racemic) [bifenthrin, 2-methyl biphenyl-3-ilmetil(2)-(1RS,3RS)-3-(2-chlorine 3,3,3-trifluoropropene)-2,2-dimethyl-cyclo-propane-carboxylate]
mortality (Arthrobacter globiformis; [1]): 84%
mortality (Arthrobacter globiformis; [2]): 75%
mortality (Arthrobacter globiformis; [3]): 70%
mortality (Arthrobacter globiformis; [4]): 56%
mortality (Arthrobacter globiformis; [5]): 40%
mortality (Arthrobacter globiformis; [6]): 25%
initial mortality (Arthrobacter globiformis): ~82%
Resistant to: FINAL (Bacillus subtillis): 1 LD of
mortality (Bacillus subtillis; [1]): 72 to 71%
mortality (Bacillus subtillis; [2]): 70 to 68%
mortality (Bacillus subtillis; [3]): 65%
mortality (Bacillus subtillis; [4]): 47 to 45%
mortality (Bacillus subtillis; [5]): 25 to 23%
mortality (Bacillus subtillis; [6]): 8 to 6%
Resistant to: FINAL (Bacillus brevis): 1.3 LD of
mortality (Bacillus brevis; [1]): 73%
mortality (Bacillus brevis; [2]): 70 to 68%
mortality (Bacillus brevis; [3]): 67%
mortality (Bacillus brevis; [4]): 55%
mortality (Bacillus brevis; [5]): 44%
mortality (Bacillus brevis; [6]): 26%
mortality (Bacillus brevis; [7]): 20%
Resistant to: FINAL (Bacillus thuringiensis): 1.2 LD of
mortality (Bacillus thuringiensis; [1]): 68 to 65%
mortality (Bacillus thuringiensis; [2]): 64 to 63%
mortality (Bacillus thuringiensis; [3]): 57 to 55%
mortality (Bacillus thuringiensis; [4]): 50 to 45%
mortality (Bacillus thuringiensis; [5]): 36 to 33%
mortality (Bacillus thuringiensis; [6]): 30 to 28%
mortality (Bacillus thuringiensis; [7]): 15 to 12%

CS/C(C)=N\OC(=O)N(C)SN(C)C(=O)O/N=C(\C)SC [thiodicarb]
mortality (Arthrobacter globiformis; stages E-1 and E-2, 0.1 LD (0.0000175 gr) in growth media, until incubation day 45): 86%
mortality (Arthrobacter globiformis; [8]): 66 to 80%
mortality (Arthrobacter globiformis; [9]): 74%
mortality (Arthrobacter globiformis; [10]): 71%
mortality (Arthrobacter globiformis; [11]): 62%
mortality (Arthrobacter globiformis; [12]): 63%
mortality (Arthrobacter globiformis; [13]): 58%
mortality (Arthrobacter globiformis; [14]): 48%
mortality (Arthrobacter globiformis; [15]): 48%
mortality (Arthrobacter globiformis; [16]): 40%
mortality (Arthrobacter globiformis; [17]): 36%
mortality (Arthrobacter globiformis; [18]): 32%
mortality (Arthrobacter globiformis; [19]): 25%
mortality (Arthrobacter globiformis; [20]): 18%
initial mortality (Arthrobacter globiformis): ~82%
Resistant to: FINAL (Bacillus subtillis): 1 LD of
mortality (Bacillus subtillis; [21]): 82%
mortality (Bacillus subtillis; [22]): 80%
mortality (Bacillus subtillis; [8]): 75 to 72%
mortality (Bacillus subtillis; [9]): 66 to 63%
mortality (Bacillus subtillis; [10]): 64 to 62%
mortality (Bacillus subtillis; [11]): 64 to 60%
mortality (Bacillus subtillis; [12]): 59 to 54%
mortality (Bacillus subtillis; [13]): 52 to 50%
mortality (Bacillus subtillis; [14]): 40 to 35%
mortality (Bacillus subtillis; [15]): 35 to 30%
mortality (Bacillus subtillis; [16]): 28 to 25%
mortality (Bacillus subtillis; [17]): 20 to 18%
mortality (Bacillus subtillis; [18]): 18 to 15%
mortality (Bacillus subtillis; [19]): 12 to 9%
mortality (Bacillus subtillis; [20]): 5%
Resistant to: FINAL (Bacillus brevis): 1.3 LD of
mortality (Bacillus brevis; [21]): 82%
mortality (Bacillus brevis; [22]): 78%
mortality (Bacillus brevis; [8]): 72%
mortality (Bacillus brevis; [9]): 68%
mortality (Bacillus brevis; [10]): 67%
mortality (Bacillus brevis; [11]): 60%
mortality (Bacillus brevis; [12]): 59 to 54%
mortality (Bacillus brevis; [13]): 55%
mortality (Bacillus brevis; [14]): 51%
mortality (Bacillus brevis; [15]): 50%
mortality (Bacillus brevis; [16]): 46%
mortality (Bacillus brevis; [17]): 42%
mortality (Bacillus brevis; [18]): 38%
mortality (Bacillus brevis; [19]): 28%
mortality (Bacillus brevis; [20]): 20%
mortality (Bacillus brevis; [23]): 28%
mortality (Bacillus brevis; [24]): 22%
mortality (Bacillus brevis; [25]): 12%
mortality (Bacillus brevis; stages E-49 and E-50, 1.3 LD (0.00024 gr)): 10%
Resistant to: FINAL (Bacillus thuringiensis): 1.2 LD of
mortality (Bacillus thuringiensis; stages E-1 and E-2, 0.1 LD (0.0000175 gr), until day 45 of incubation): 72 to 70%
mortality (Bacillus thuringiensis; [8]): 70 to 68%
mortality (Bacillus thuringiensis; [9]): 65 to 61%
mortality (Bacillus thuringiensis; [10]): 57 to 55%
mortality (Bacillus thuringiensis; [11]): 52 to 50%
mortality (Bacillus thuringiensis; [12]): 52 to 50%
mortality (Bacillus thuringiensis; [13]): 50 to 45%
mortality (Bacillus thuringiensis; [14]): 44 to 42%
mortality (Bacillus thuringiensis; [15]): 44 to 40%
mortality (Bacillus thuringiensis; [16]): 36 to 35%
mortality (Bacillus thuringiensis; [17]): 30 to 28%
mortality (Bacillus thuringiensis; [18]): 30%
mortality (Bacillus thuringiensis; [19]): 25%
mortality (Bacillus thuringiensis; [20]): 18 to 17%
mortality (Bacillus thuringiensis; [23]): 18 to 17%
mortality (Bacillus thuringiensis; [24]): 14%
mortality (Bacillus thuringiensis; [25]): 10 to 7%
